Assay results reported in patent US7582652B2, “Kinase inhibitors” (Eli Lilly and Company, priority 2004, dated 2009).
pIC50: −log10 of the molar value.

Test system: TNF-α production in mouse peritoneal macrophages
Experiment: Inhibition of TNF-α in vitro (mouse peritoneal macrophages, LPS/interferon-γ, Luminex)
Type: cell-based
Conditions: suppression of TNF-α; macrophages treated with 50 ng/mL LPS and 10 U/mL interferon-γ for 18 h
Experimental: Mouse Peritoneal Macrophages
1 mL thioglycolate broth (5.0 g yeast extract, 15.0 g casitone or trypticase, 5.0 g dextrose, 2.5 g sodium chloride, 0.75 g L-cystine, 0.5 g sodium thioglycolate, 1.0 mg resazurin, and 0.75 g agar in 1.0 L distilled water) is injected into the peritoneal cavity of Balb/C female mice. At day 4 or 5 post-injection the mice are sacrificed and then injected i.p. with 4 mL RPMI-1640 medium (BioWhittaker) and the peritoneal macrophages are withdrawn by syringe.
Mouse peritoneal microphages are counted with a hemocytometer and adjusted to 5×10^5 cells/well in 96-well plates in RPMI-1640 medium with 10% fetal bovine serum. 200 μL/well is plated in 96-well plates and the cells allowed to settle and adhere to the bottom of the well for at least 3 h. The test compound or standard p38 kinase inhibitor is pre-treated using a series of 8 concentrations for 1 h at 37° C. (20 μL/well). The cells are treated with a mixture of 50 ng/mL lipopolysaccharide (LPS) and 10 U/mL interferon-γ for 18 h at 37° C. (20 μL/well). The conditioned media is harvested and assayed for TNF-α production using the Luminex procedure.
TNF-α/Luminex Detection Assay (Bio-Rad Bio-Plex Kit—Catalog #171-G12221)
The lyophilized premixed TNF-α standard (1 standard tube/two 96-well plates) is reconstituted with 50 μL sterile water (500,000 pg/mL). The samples are vortexed for 5 seconds, incubated on ice for 30 min, and vortexed for 5 seconds before use. A set of twelve 1.5 mL tubes are labeled with #1-thru #12 and then the amounts of cell media shown below added to the appropriate tubes (standard concentrations are as follows: 50,000; 25,000; 12,500; 6,250; 3,125; 1,562.5; 781.3; 390.6; 195.3; 97.7; 48.8; and 24.4 pg/mL). The premixed anti-cytokine conjugated beads are vortexed (25×) vigorously for 30 seconds. The anti-cytokine conjugated beads are diluted to a 1× concentration using 1× Bio-Plex Assay Buffer. For every plate, 240 μL of the pre-mixed beads is added to 5760 μL of Bio-Plex Assay Buffer. A Millipore 96-well filter plate is blocked with 100 μL/well of blocking buffer. The blocking buffer is filtered through using a Millipore filtration system and then toweled dry. 2 washes are performed on the filter plate with 100 μL/well of Bio-Plex Assay Buffer and toweled dry. The 1× anti-cytokine conjugated beads are vortexed for 15 seconds and added 50 μL to each well. This is filtered through and toweled dry. 2 washes are performed on plates with 100 μl/well of Bio-Plex Wash Buffer. Again, it is filtered through and toweled dry. 50 μL of sample or standard is added to each sample well. This is incubated for 60 seconds at RT on a shaker protected from light at setting 6 and then for 30 min at setting 3 and then placed in the refrigerator overnight. 3 washes are performed with Bio-Plex Wash Buffer. Filter through and toweled dry. The cytokine detection antibody is prepared (˜10 min prior to use) for every plate and 60 μL of the premixed cytokine detection antibody stock is added to 5940 μL of Bio-Plex Detection Antibody Diluent. 50 μL of cytokine detection antibody is added and incubated for 60 seconds at RT on a shaker protected from light at setting 6 and then for 30 min at setting 3.3 washes are performed with the Bio-Plex Wash Buffer. This is filtered through and toweled dry. Strept-PE (˜10 minutes prior to use) is prepared for every plate and 60 μL to 5940 μL of Bio-Plex Assay Buffer added. 50 μL of Streptavidin-PE is added to each well and incubated for 60 seconds at RT on a shaker protected from light at setting 6 and then for 10 min at setting 3. 3 washes are performed with Bio-Plex Wash-Buffer. This is filtered through. The beads are re-suspended in 100 μL/well of Bio-Plex Assay Buffer. Standards and samples are read on a Luminex machine. […]

- pIC50: 8.20
Structure (SMILES): CC(C)(C)Cn1c(N)nc2ccc(-c3nc(C(C)(C)C)[nH]c3-c3ccc(F)cc3)nc21.CS(=O)(=O)O.CS(=O)(=O)O [EXAMPLE 104, Crystalline 5-[2-tert-Butyl-5-(4-fluoro-phenyl)-1H-imidazol-4-yl]-3-(2,2-dimethyl-propyl)-3H-imidazo[4,5-b]pyridin-2-ylamine dimethanesulfonate]
